The values that follow come from ChEMBL document CHEMBL2203133 (J Med Chem, 2012).

Series [1] deals with Voltage-gated inwardly rectifying potassium channel KCNH2 (Homo sapiens, UniProt Q12809).
Series [2] has as its target T1, Serine/threonine-protein kinase Chk1 (Homo sapiens, UniProt O14757).
T1 sequence (O14757 whole entry): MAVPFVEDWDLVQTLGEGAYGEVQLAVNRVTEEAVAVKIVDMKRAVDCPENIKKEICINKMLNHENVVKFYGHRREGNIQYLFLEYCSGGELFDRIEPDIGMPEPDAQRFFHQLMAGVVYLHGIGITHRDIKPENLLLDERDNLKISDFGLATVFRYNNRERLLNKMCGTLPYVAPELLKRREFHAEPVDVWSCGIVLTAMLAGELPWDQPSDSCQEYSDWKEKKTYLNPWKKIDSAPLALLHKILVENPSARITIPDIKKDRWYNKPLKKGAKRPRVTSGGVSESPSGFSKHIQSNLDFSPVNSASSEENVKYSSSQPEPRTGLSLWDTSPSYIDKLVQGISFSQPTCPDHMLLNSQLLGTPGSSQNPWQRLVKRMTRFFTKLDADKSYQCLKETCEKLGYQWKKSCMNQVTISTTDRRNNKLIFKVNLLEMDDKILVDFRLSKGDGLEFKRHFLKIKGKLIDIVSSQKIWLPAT

The target in series [3] is T2, hERG (KCNH2) (Homo sapiens, UniProt Q12809). Description: Inhibition of human ERG overexpressed in HEK cells at 10 uM. The format is cell-based, HEK293. Conditions: HEK cells overexpressing human ERG.
The nature of another series: in vitro. The settings on record: mouse, liver microsomes.
A short description of series [4]: Plasma concentration in BALB/c mouse at 10 mg/kg, po at 1 hr. The class given is ADME, organism-based. The arrangement: dose 10 mg/kg, route oral.
Series [5] is described as follows: Plasma concentration in BALB/c mouse at 10 mg/kg, iv at 6 hrs administered as bolus dose. The class given is ADME, organism-based. On the set-up: dose 10 mg/kg, route intravenous.
Series [6] is described as follows: Plasma concentration in BALB/c mouse at 10 mg/kg, iv at 1 hr administered as bolus dose. The class given is ADME, organism-based. On the set-up: dose 10 mg/kg, route intravenous.
The nature of series [7]: Plasma concentration in BALB/c mouse at 10 mg/kg, po at 6 hrs. The class given is ADME, organism-based. The arrangement: dose 10 mg/kg, route oral.
For series [8], the system named is HT-29. Description: Antitumor activity against human HT-29 cells xenografted in athymic mouse assessed as tumor growth delay at 12.5 mg/kg, ip tid for 7 days (reference value: 6.9 1.5). The format is functional. Conditions: route intraperitoneal. For orientation: In xenograft studies the graft and the host belong to different species.
Series [9] has as its system Mus musculus. Description: Toxicity in athymic mouse xenografted with human HT-29 cells assessed as body weight loss at 12.5 mg/kg, ip tid for 7 days. The class given is organism-based. The arrangement: dose 12.5 mg/kg, route intraperitoneal. Conditions: in vivo, 168 h.
Series [10] deals with T2, hERG (KCNH2). The experiment in a line: Inhibition of human ERG overexpressed in HEK cells at 11 uM. The class given is cell-based, HEK293. Conditions: HEK cells overexpressing human ERG.
The subject of a further series is SW-620. The experiment in a line: Antitumor activity against human SW620 cells xenografted in athymic mouse assessed as tumor growth delay at 100 mg/kg, iv tid for 4 days (reference value: 5.3 1.3). The class given is functional.
Series [11] relates to Mus musculus. Description: Toxicity in athymic mouse xenografted with human Calu6 cells assessed as body weight loss at 100 mg/kg, iv tid for 7 days. The format is organism-based, Calu-6. The arrangement: dose 100 mg/kg, route intravenous. The settings on record: in vivo, 168 h.
In series [12] the test system is HT-29. Description: Antitumor activity against human HT-29 cells xenografted in athymic mouse assessed as tumor growth delay at 100 mg/kg, iv tid for 7 days (reference value: 8.8 4.8). The class given is functional.
The next series concerns Calu-6. The experiment in a line: Antitumor activity against human Calu6 cells xenografted in athymic mouse assessed as tumor growth delay at 100 mg/kg, iv tid for 7 days (reference value: 6.9 1.6). The class given is functional.
Series [13] relates to Mus musculus. The experiment in a line: Toxicity in athymic mouse xenografted with human HT-29 cells assessed as body weight loss at 100 mg/kg, iv tid for 7 days. The class given is organism-based. On the set-up: dose 100 mg/kg, route intravenous. Conditions: in vivo, 168 h.
Series [14] has as its system Mus musculus. Description: Toxicity in athymic mouse xenografted with human SW620 cells assessed as body weight loss at 100 mg/kg, iv tid for 4 days. The format is organism-based, SW-620. On the set-up: dose 100 mg/kg, route intravenous. The settings on record: in vivo, 96 h.
A further series relates to Caco-2. The settings on record: human.

Sequence of Voltage-gated inwardly rectifying potassium channel KCNH2 (Q12809 whole entry): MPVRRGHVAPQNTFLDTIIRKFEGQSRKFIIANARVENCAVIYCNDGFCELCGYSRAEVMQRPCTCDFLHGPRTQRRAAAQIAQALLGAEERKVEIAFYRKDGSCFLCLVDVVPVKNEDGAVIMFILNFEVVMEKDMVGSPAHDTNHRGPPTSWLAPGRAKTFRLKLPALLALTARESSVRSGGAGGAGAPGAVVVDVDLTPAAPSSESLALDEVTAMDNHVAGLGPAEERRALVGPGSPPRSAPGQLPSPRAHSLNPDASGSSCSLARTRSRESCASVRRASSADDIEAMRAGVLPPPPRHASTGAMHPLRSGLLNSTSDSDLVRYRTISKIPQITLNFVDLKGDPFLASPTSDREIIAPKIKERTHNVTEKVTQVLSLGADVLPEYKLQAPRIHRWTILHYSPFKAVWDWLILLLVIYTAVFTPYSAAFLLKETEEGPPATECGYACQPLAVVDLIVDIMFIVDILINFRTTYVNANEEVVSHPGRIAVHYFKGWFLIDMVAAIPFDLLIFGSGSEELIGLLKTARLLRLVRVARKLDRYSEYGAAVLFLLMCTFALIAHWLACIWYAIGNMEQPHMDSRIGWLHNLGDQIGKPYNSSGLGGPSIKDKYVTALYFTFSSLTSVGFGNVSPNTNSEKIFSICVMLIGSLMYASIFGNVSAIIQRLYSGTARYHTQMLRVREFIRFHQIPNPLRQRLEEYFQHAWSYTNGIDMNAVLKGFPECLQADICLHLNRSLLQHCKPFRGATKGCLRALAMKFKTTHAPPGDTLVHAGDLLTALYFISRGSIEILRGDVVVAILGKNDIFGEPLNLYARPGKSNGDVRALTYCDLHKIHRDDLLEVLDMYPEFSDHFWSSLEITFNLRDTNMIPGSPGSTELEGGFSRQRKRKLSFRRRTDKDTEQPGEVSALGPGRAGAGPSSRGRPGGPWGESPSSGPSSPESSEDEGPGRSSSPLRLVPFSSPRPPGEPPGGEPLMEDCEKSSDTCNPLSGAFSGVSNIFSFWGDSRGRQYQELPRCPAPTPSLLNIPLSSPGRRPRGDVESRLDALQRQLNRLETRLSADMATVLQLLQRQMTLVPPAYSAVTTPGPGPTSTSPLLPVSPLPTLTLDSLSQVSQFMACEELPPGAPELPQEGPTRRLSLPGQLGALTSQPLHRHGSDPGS
T2 sequence (Q12809 whole entry): as above
Description for Caco-2: Permeability across apical to basolateral side in human Caco2 cells

One may read the IC50 as the concentration that gives 50% inhibition. Lower therefore signals greater potency. For the compound `COC(=O)c1cnc(Nc2cnc(C#N)c(O[C@@H]3CCNC3)n2)cc1N(C)C`, the concentration for half-maximal inhibition (IC50) came out at 30000 nM in series [1] and 8.8 nM in [2].
On to `CNc1cc(Nc2cnc(C#N)c(O[C@H](C)CN(C)C)n2)ncc1Cl`, for which the IC50 amounted to 1000 nM in [1] and 20 nM in series [2].
Broadly, the inhibition is the drop in the measured response relative to a control, in per cent. With `CNc1cc(Nc2cnc(C#N)c(O[C@H](C)CN(C)C)n2)ncc1C#CC(C)(C)O`, the inhibition at 10 µM at hERG (KCNH2) [3] stood at 59%. In [2], this compound registered a half-inhibitory concentration (IC50) of 2.9 nM.
As for `C#Cc1cnc(Nc2cnc(C#N)c(O[C@H](C)CN(C)C)n2)cc1NC`, the metabolised at 0.5 h in “in vitro” came to 40%. The concentration at 1 h turned out to be 439 nM in series [4] and 833 nM in series [6]. The results for the concentration at 6 h in series [5] and in series [7] were 7 nM and 6 nM, respectively. The same compound had an IC50 in series [2] of 11 nM.
Consider `CNc1cc(Nc2cnc(C#N)c(O[C@H](C)CN(C)C)n2)ncc1C(=O)OC`, for which, in “in vitro”, the metabolised at 0.5 h was 49%. Also, the results for the half-maximal inhibitory concentration (IC50) in series [1] and in [2] were 5000 nM and 7 nM, respectively.
`CSc1cc(Nc2cnc(C#N)c(O[C@H](C)CN(C)C)n2)ncc1-c1cnn(C)c1`: the IC50 in [1] is 8000 nM; in series [2], 27 nM.
Take `CCc1c2c(nc3ccc(OC(=O)N4CCC(N5CCCCC5)CC4)cc13)-c1cc3c(c(=O)n1C2)COC(=O)[C@]3(O)CC` [IRINOTECAN]: the Time in the series on HT-29 [8] came out at 6.4 days. Besides, the Activity result in the series with Mus musculus [9] is reported as “Non-toxic”.
Regarding `CNc1ccnc(Nc2cnc(C#N)c(O[C@H](C)CN(C)C)n2)c1`, the inhibition at 10 µM on hERG (KCNH2) [3] is 71%. In series [2], this compound showed a half-inhibitory concentration (IC50) of 97 nM.
In [2], `COC(=O)c1cnc(Nc2cnc(C#N)c(O[C@@H]3CCNC3)n2)cc1OC` returned an IC50 of 46.5 nM. In addition, on hERG (KCNH2) [10], the inhibition at 11 µM was 44%.
`CNc1cc(Nc2cnc(C#N)c(O[C@H]3CCNC3)n2)ncc1-c1cnn(C)c1` gave a metabolised at 0.5 h in “in vitro” of 12%. Moreover, the concentration at 1 h is 3 nM in series [4] and 254 nM in series [6]. In addition, the results for the concentration at 6 h in [5] and in series [7] were 53 nM and 2 nM, respectively. Also, the inhibition at 10 µM against hERG (KCNH2) [3] was 37%.
For the compound `CNc1cc(Nc2cnc(C#N)c(O[C@H](C)CN(C)C)n2)ncc1-c1cccc(F)c1`, the 50% inhibitory concentration (IC50) in series [2] came out at 36 nM. In addition, the inhibition at 11 µM at hERG (KCNH2) [10] was 103%.
Take `Nc1ccn([C@@H]2O[C@H](CO)[C@@H](O)C2(F)F)c(=O)n1` [GEMCITABINE]: the values for the Time with SW-620, in the series with HT-29 [12] and in the series on Calu-6 were 1.6 days, 2.3 days and 7.2 days, respectively. The Activity entry in the series with Mus musculus [11], in the series with Mus musculus [13] and with Mus musculus [14] was “Non-toxic” each time.
Regarding `COC(=O)c1cnc(Nc2cnc(C#N)c(O[C@@H]3CCNC3)n2)cc1SC`, the inhibition at 10 µM against hERG (KCNH2) [3] amounted to 25%. Besides, in [2], the IC50 turned out to be 18 nM.
Turning to `COc1cc(Nc2cnc(C#N)c(O[C@@H]3CCNC3)n2)ncc1-c1cnn(C)c1`, the half-maximal inhibitory concentration (IC50) in [2] is less than 1 nM.
As for `C[C@H](CN(C)C)Oc1nc(Nc2cc3cccc(Cl)c3cn2)cnc1C#N`, the midpoint of inhibition in series [1], the IC50, lay at 5000 nM.
Turning to `CNc1cc(Nc2cnc(C#N)c(O[C@H](C)CN(C)C)n2)ncc1C1CC1`, in the series “in vitro”, the metabolised at 0.5 h worked out at 42%. Further, the concentration at 1 h in series [4] amounted to 80 nM; in series [6], 417 nM. The concentration at 6 h turned out to be 29 nM in series [5] and 8 nM in series [7]. Besides, the IC50 was determined as 6000 nM in [1] and 26 nM in series [2].
`COc1cc(Nc2cnc(C#N)c(O[C@@H]3CCN(C)C3)n2)ncc1-c1cnn(C)c1`: in “in vitro”, the metabolised at 0.5 h is 18%. Also, the figures for the concentration at 1 h in series [4] and in series [6] were 264 nM and 1180 nM, respectively. The figures for the concentration at 6 h in series [5] and in [7] were 7 nM and 6 nM, respectively. The IC50 in [1] is 16000 nM; in [2], 6.3 nM.
Turning to `CNc1cc(Nc2cnc(C#N)c(O[C@H](C)CN(C)C)n2)ncc1C(F)(F)F`, the metabolised at 0.5 h in the series “in vitro” was 43%. Moreover, the concentration at 1 h in series [4] stood at 809 nM; in series [6], 1040 nM. The concentration at 6 h in [5] was 33 nM; in series [7], 26 nM. The half-inhibitory concentration (IC50) in [1] came to 1000 nM; in series [2], 21 nM. Besides, the permeability in the series on Caco-2 is less than 4.6 ×10⁻⁶ cm/s.
The compound `CNc1cc(Nc2cnc(C#N)c(O[C@H]3CCN(C)C3)n2)ncc1-c1cnn(C)c1` yielded a metabolised at 0.5 h in “in vitro” of 19%. The concentration at 1 h in [4] amounted to 18 nM; in series [6] it was 147 nM. The concentration at 6 h in series [5] is 8 nM; in [7] it was 4 nM. The same compound registered a 50% inhibitory concentration (IC50) in series [2] of 3.4 nM.
In the case of `CNc1cc(Nc2cnc(C#N)c(O[C@@H]3CCNC3)n2)ncc1-c1cnn(C)c1`, the inhibition at 10 µM at hERG (KCNH2) [3] worked out at 22%.
